Reference: patent US20220105029A1, “BIODEGRADABLE CHITOSAN MICRONEEDLE PATCH FOR TRANSDERMAL DELIVERY FOR LIVESTOCK PAIN MANAGEMENT” (THE BOARD OF TRUSTEES OF THE UNIVERSITY OF ARKANSAS, priority 2020, published 2022)

What was measured:
[1] = Solubility of meloxicam in solvents; format: physicochemical
[2] = cited from earlier work

solubility in acetic acid [1]: not soluble
Compound: Cc1cnc(NC(=O)C2=C(O)c3ccccc3S(=O)(=O)N2C)s1 [meloxicam]
solubility in acids [2]: not dissolving in acids | solubility in dimethyl sulfoxide (DMSO) [2]: dissolves completely
